Experimental data published in patent US7964629B2, “Inhibitors of isoprenylcysteine carboxyl methyltransferase” (Duke Universtiy, priority 2005, dated 2011).

Key:
[1] = test system: GFP-tagged K-Ras in MDCK cells; experiment: Localization of GFP-K-Ras in MDCK cells; format: cell-based; conditions: 10, 20, 30 μM; 72 h
Method: FIGS. 3A and 3B. Impact of cysmethynil treatment on Ras localization and signaling. FIG. 3A. Mislocalization of GFP Ras in cysmethynil treated cells. […] Live cells were imaged on a spinning disk confocal microscope. FIG. 3B. Impact of cysmethynil treatment on EGF-stimulated protein phosphorylation. […] Where indicated, cells were treated with EGF for the final 10 min prior to harvesting. Cell lysates containing equal amounts of protein were resolved on a 13% SDS-polyacrylamide gel and probed with antiphospho-Akt, antiphospho-p42/44 MAPK or anti-β-tubulin antibody as indicated. MDCK cells stably expressing GFP-H-Ras, GFP-K-Ras or GFP-N-Ras were grown on 35 mm coverslip dishes (MatTek Corporation, Ashland, Mass.) treated with poly-D-lysine. MDCK cells expressing […] were prepared by transient transfection of the Yes-GFP construct (McCabe and Berthiaume, Mol Cell Biol 10:3771-3786 (1999)) using Superfect reagent (Quiagen, Valencia, Calif.) following the manufacturer's instructions. […] Cells were imaged 72 h after drug treatment (24 h for transiently transfected cells) on an Olympus IX70 inverted microscope (Melville, N.Y.) with an UltraView spinning-disk confocal (PerkinElmer LAS, Wellesley, Mass.) and a Krypton/Argon laser, 488 nm line, attached to a cooled-CCD camera (Hamamatsu, Bridgewater, N.J.). […]

[2] = test system: Akt phosphorylation in DKOB8 colon cancer cells; experiment: Phosphoprotein analysis: EGF-stimulated Akt; format: cell-based; conditions: 1 μM, three days, 1% serum, EGF 10 min
Method: FIGS. 3A and 3B. Impact of cysmethynil treatment on Ras localization and signaling. FIG. 3A. Mislocalization of GFP Ras in cysmethynil treated cells. […] Live cells were imaged on a spinning disk confocal microscope. FIG. 3B. Impact of cysmethynil treatment on EGF-stimulated protein phosphorylation. […] Where indicated, cells were treated with EGF for the final 10 min prior to harvesting. Cell lysates containing equal amounts of protein were resolved on a 13% SDS-polyacrylamide gel and probed with antiphospho-Akt, antiphospho-p42/44 MAPK or anti-β-tubulin antibody as indicated. […] Half of the wells were then treated with EGF (10 ng/ml) and half with vehicle for 10 min. Cells were rinsed with PBS and harvested in SDS-PAGE loading buffer. Total cell lysates (30 μg protein) were resolved on 4-20% Tris-glycine polyacrylamide gels (Invitrogen). Proteins were transferred to nitrocellulose and probed with a mix of anti-phospho-Akt and anti-phospho-p42/44 MAPK antibodies, or with anti-tubulin or anti-phospho NFκB antibody (Cell Signaling Technology) as indicated. Visualization was performed with alkaline phosphatase (Promega, Madison, Wis.) as per the manufacturer's instructions.

[3] = test system: p42/44 MAPK phosphorylation in DKOB8 cells expressing GFP-Icmt; experiment: EGF-stimulated MAPK activation in Icmt-overexpressing cells; format: cell-based; conditions: 5 μM, three days, reduced-serum media; Icmt activity elevated 4-fold
Method: FIGS. 4A-4C. Overexpression of Icmt rescues EGF-stimulated MAPK activation and anchorage-independent growth in cysmethynil-treated cells. FIG. 4A. Creation of cell lines stably overexpressing Icmt. DKOB8 cells were engineered to stably express either GFP alone or a GFP-Icmt fusion protein. Membrane fractions from GFP and GFP-ICMT expressing lines were assayed for Icmt activity using the BFC assay. FIG. 4B. Overexpression of Icmt restores EGF-stimulated MAPK activation in cysmethynil-treated cells. […] Where indicated, cells were treated with EGF for the final 10 min prior to harvesting. Cell lysates containing equal amounts of protein were resolved on a 13% SDS-polyacrylamide gel and probed with antiphospho-p42/44 MAPK or, as a control, antiphospho NFκB antibody as indicated. FIG. 4C. […] After 3 weeks of growth, colonies were stained with MTT and imaged.
Half of the wells were then treated with EGF (10 ng/ml) and half with vehicle for 10 min. Cells were rinsed with PBS and harvested in SDS-PAGE loading buffer. Total cell lysates (30 μg protein) were resolved on 4-20% Tris-glycine polyacrylamide gels (Invitrogen). Proteins were transferred to nitrocellulose and probed with a mix of anti-phospho-Akt and anti-phospho-p42/44 MAPK antibodies, or with anti-tubulin or anti-phospho NFκB antibody (Cell Signaling Technology) as indicated. […]

Rce1 protease = molecular target: T1, Rce1 protease (Homo sapiens, UniProt Q9Y256); experiment: Rce1 protease inhibition (results not shown); format: biochemical; conditions: concentrations up to 50 μM
T1 construct: made in house; host or cells: Sf9 insect cells; membranes
T1 sequence (Q9Y256 1-329): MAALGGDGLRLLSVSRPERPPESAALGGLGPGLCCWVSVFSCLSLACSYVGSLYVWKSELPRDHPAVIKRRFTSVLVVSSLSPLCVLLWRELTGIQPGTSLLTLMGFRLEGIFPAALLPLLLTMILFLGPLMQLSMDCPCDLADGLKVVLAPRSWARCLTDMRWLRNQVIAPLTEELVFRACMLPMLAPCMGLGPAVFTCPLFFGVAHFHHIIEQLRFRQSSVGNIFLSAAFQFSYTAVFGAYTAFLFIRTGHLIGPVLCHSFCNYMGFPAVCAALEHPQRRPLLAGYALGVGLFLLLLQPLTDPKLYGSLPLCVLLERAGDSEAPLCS

[4] = test system: α-tubulin in MDA-MB-231 breast cancer cells; experiment: Immunoblot of control protein α-tubulin; format: cell-based; conditions: 20 μM, 6 day treatment
Method: The impact of Icmt inhibition on function of the geranylgeranylated GTPases Rho and Rac in cells has been examined. This study was carried out in MD-MBA-231 breast cancer cells. Tumorigenesis and metastatic behavior of these cells is dependent on high levels of Rho GTPases in particular. […] Cells were harvested and lysates containing equal amounts of protein were resolved by SDS-PAGE and subjected to immunoblot analysis with specific antibodies to RhoA (FIG. 7A), or Rac1 (FIG. 7B). As a control, immunoblot analysis for α-tubulin was carried out on all samples.

GGTase-I = GGTase-I (Homo sapiens, UniProt P49354+P53609); experiment: GGTase-I inhibition (results not shown); format: biochemical; conditions: concentrations up to 50 μM

CCCCCCCCn1cc(CC(N)=O)c2cc(-c3cccc(C)c3)ccc21 [cysmethynil, 2-[5-(3-methylphenyl)-1-octyl-1H-indol-3-yl]acetamide]
localization of GFP-K-Ras [1]: dose-dependent mislocalization
EGF-induced increase in Akt phosphorylation [2]: partially but not completely attenuated
blockade of EGF-stimulated MAPK activation [3]: protect the cells from cysmethynil blockade
inhibition of Rce1 protease (Rce1 protease): did not inhibit
level of control protein α-tubulin [4]: only marginally affected
inhibition of GGTase-I (GGTase-I): did not inhibit
